In patent publication US10328018B2, “Cosmetic use of the essential oil of Laserpitium siler L. against the signs of aging of the skin and as a skin antioxidant” (L'OREAL, priority 2012, dated 2019):
Marks after values point to notes of the source that are not given here.

How the values were obtained:
[1] = tested on: type I procollagen; experiment: Synthesis/secretion of type I procollagen by ELISA (CICP) on NHDF dermal fibroblasts; assay type: cell-based, human; details: 100 μM, 72 h, control without treatment=100%
Experimental: The study consists in evaluating, on NHDF (Normal Human Dermal Fibroblasts) dermal fibroblasts, the effects of the essential oil of […]. of example 1, at two concentrations, over the following parameters: • the synthesis of type I procollagen by ELISA (CICP, Cross-linked C-telopeptides of Type I collagen) after 72 h of contact, and • the abundance of MMP-1 secreted in the culture medium after 72 h of contact. The study was carried out on NHDF human dermal fibroblasts (ATCC, CRL-2522, origin: foreskin) cultured in monolayer in a medium of DMEM (Invitrogen, 31885-049) and antibiotics (penicillin/streptomycin, Invitrogen, 15140-122), and cultured in serum-free medium for studies on type I collagen and on MMP-1. The fibroblasts were seeded in 24-well plates, 24 h before the treatment with the test and reference elements. For the measurement of the synthesis/secretion of type I procollagen and for the quantification of MMP-1, the test elements and also the reference elements (TGF-β1 (Transforming Growth Factor-β1) for MMP-1 and vitamin C for CICP) were applied for 72 h in the absence of serum. The supernatants of the cultures were harvested after 72 h of treatment with the active agents and the reference element (in this case, vitamin C at 1000 μM). These were frozen at -20° C. until the day of the analysis. […]

[2] = tested on: Collagen IV; experiment: Production of collagen IV by normal human keratinocytes (in situ immunolabeling, image analysis); assay type: cell-based; details: TGF-β at 10 ng/ml, NHEK, 72 hours
Experimental: The purpose of this study was to evaluate the effects of the essential oil of Laserpitium Siler L. according to example 1 on the dermo-epidermal junction marker (Coll. IV) modulated during aging by immunohistochemistry techniques.
• Culture medium: Keratinocyte-SFM supplemented with: • Epidermal Growth Factor (EGF) 0.25 ng/ml • Pituitary extract (PE) 25 μg/ml • Gentamicin 25 μg/ml • Test medium: Keratinocyte-SFM supplemented with: • Gentamicin 25 μg/ml
Normal human keratinocytes (NHEK—Ref: K341) were seeded and cultured in a culture medium (Keratinocyte-SFM for 24 hours). The culture medium was replaced by the test medium containing, or not containing (control), the test compounds or reference compounds (TGF-β at 10 ng/ml), then the cells were incubated for 72 hours at 37° C., 5% CO2.
After incubation, the culture medium was removed and the cells were rinsed, fixed and permeabilized.
The cells were then labeled with the primary antibody targeted against the protein of interest (Collagen IV).
The relative quantification was carried out by image analysis after in situ immuno labeling.
The image acquisition was carried out with a high-resolution imaging system: INCell Analyser™ 1000.

[3] = tested on: MMP-1; experiment: Abundance of MMP-1 secreted in culture medium of NHDF dermal fibroblasts (pro-MMP-1 ELISA); assay type: cell-based, human; details: 2.5 ng/ml, 72 h, control without treatment=100%
Experimental: The study consists in evaluating, on NHDF (Normal Human Dermal Fibroblasts) dermal fibroblasts, the effects of the essential oil of Laserpitium Siler L. of example 1, at two concentrations, over the following parameters: • the synthesis of type I procollagen by ELISA (CICP, Cross-linked C-telopeptides of Type I collagen) after 72 h of contact, and • the abundance of MMP-1 secreted in the culture medium after 72 h of contact.
The study was carried out on NHDF human dermal fibroblasts (ATCC, CRL-2522, origin: foreskin) cultured in monolayer in a medium of DMEM (Invitrogen, 31885-049) and antibiotics (penicillin/streptomycin, Invitrogen, 15140-122), and cultured in serum-free medium for studies on type I collagen and on MMP-1.
The fibroblasts were seeded in 24-well plates, 24 h before the treatment with the test and reference elements.
For the measurement of the synthesis/secretion of type I procollagen and for the quantification of MMP-1, the test elements and also the reference elements (TGF-β1 (Transforming Growth Factor-β1) for MMP-1 and vitamin C for CICP) were applied for 72 h in the absence of serum. […]
The quantification of MMP-1 was carried out with a specific kit (Human pro-MMP-1 Quantikine ELISA, R&D System), according to the instructions given by the supplier.

O=C1O[C@H]([C@@H](O)CO)C(O)=C1O [Vitamin C]
CICP (protein abundance) [1]: 160%***

TGF-β: positive control / reference compound at 10 ng/ml in the collagen IV test
increase in expression of collagen IV compared to the control [2]: 594%

TGF-β1: Transforming Growth Factor-β1, reference element for MMP-1
MMP-1 (protein abundance) [3]: 47%***
